Measured values reported in article PMC7026080, “Phenotypic high-throughput screening platform identifies novel chemotypes for necroptosis inhibition” (Cell Death Discovery, 2020).
pEC50: −log10 of the molar value. Values after ≈ are worked out from the molar mass of the structure shown. Where two headings read alike, the source gives them in different places.

Key:
Jurkat E6.1 cells = assay: Apoptosis modulation, caspase-3/-7 activity in Jurkat E6.1 cells + CHX, 8 h; type: cell-based, human; conditions: Jurkat E6.1 + 0.5 μg/mL CHX
Experimental: Since apoptosis and necroptosis share key molecular players[20] and some RIPK3 necroptosis inhibitors may induce caspase-dependent cytotoxicity, hit compounds were tested for modulation of apoptosis activity in step three of the HTS workflow. Preliminary tests prior to screening encompassed the evaluation of several apoptosis inducers, such as FasL, doxorubicin, cycloheximide (CHX) and staurosporine, for their capability to modulate caspase-3/-7 activity in human Jurkat E6.1 T-cells, using Z-VAD-FMK and SN-2668/Nec-1 as negative and positive controls, respectively. […]
Adenylate kinase (AK) and lactate dehydrogenase (LDH) release from damaged cells were measured using the Toxilight BioAssay Kit (Lonza, Basel, Switzerland) and the Cytotoxicity Detection Kit (Roche Diagnostics GmbH, Mannheim, Germany), respectively. Adenosine triphosphate (ATP) metabolism was evaluated using CellTiter-Glo^TM Luminescent Cell Viability Assay (Promega, Madison, WI, USA). Apoptosis was determined by the measurement of caspase-3/-7 activity using the Caspase-Glo® 3/7 Assay (Promega) according to the manufacturer’s instructions. Cellular metabolic activity was measured using CellTiter 96® Aqueous Non-Radioactive Cell Proliferation (MTS) Assay (Promega). […]
Primary high-throughput screen. […] Eight hours after co-incubation of L929 cells with mTNF-α and test compounds, AK release was evaluated. […]

[1] = Human microsomal clearance (in vitro); type: in vitro ADME; conditions: microsomes, read-out: Human microsomal clearance (in vitro) rate
L929 cells = assay: Necroptosis inhibition in L929 cells + mTNF-α, 8 h, AK release; type: cell-based, murine; conditions: for pEC50 / EC50: Mus musculus, L929; for pEC50: 10 ng/mL mTNF-α, AK release, screening step 1 as printed, read-out: EC50 L929 + TNF-α (in vitro); for EC50: read-out: L929 + TNF-α (in vitro) pEC50 (converted)
Experimental: A total of 251,328 small-molecule compounds were screened in L929 cells incubated with mTNF-α alone or together with test compounds at 31.7 μM for 8 h. Intraplate controls for data normalization consisted of untreated cell wells. L929 cells co-incubated with mTNF-α and SN-2668/Nec-1 served as positive controls (Fig. S2A). […] In HTS step one (primary screening), valid data was obtained for 247,738 compounds, 3353 of which were within the established hit selection criteria, corresponding to a 1.4% hit rate for the full library (Fig. 1a).
The second screening step aimed to determine the EC50 of selected compounds. L929 and Jurkat FADD^-/- cells were co-incubated with TNF-α and test compounds at 10-point concentration range (0.004–100 μM) for 8 h. Compound-mediated inhibition of necroptosis was assessed through AK release and the EC50 calculated. Jurkat cells were used to validate results in human cells. […] In HTS step two, 4374 compounds (3353 hits from HTS step one plus 1021 near neighbours) were evaluated for potency by dose-response curves. From those, 1,438 hit compounds passed the selection criteria on both cell lines, corresponding to a […] hit rate.
L929 cells were co-incubated for 8 h with mTNF-α and test compounds at 31.7 μM after which AK release was measured. […] Hit compounds were then evaluated for apoptosis modulation. Further details are provided as Supplementary Information.
Cell treatments and viability assays. Cells were seeded in 384- or 96-well plates at 1000 or 8000 cells/well (in 12.5 μL or 100 μL final volume), respectively, using a Multidrop^TM Combi Reagent Dispenser (ThermoFisher Scientific). For inducing necroptosis, L929 and Jurkat FADD^-/- cells were incubated with 10 ng/mL mTNF-α and hTNF-α respectively; BV2 cells with 25 µM Z-VAD-FMK, and HT29 cells with 20 ng/mL hTNF-α, 250 nM Smac mimetic BV6 and 10 μM Z-VAD-FMK. Cells were co-incubated in the presence of test compounds at target concentrations for 8 or 24 h. Nec-1 at 29.2 μM was used as positive control. For apoptosis assays, Jurkat E6.1 cells were co-incubated with 0.5 μg/mL CHX and test compounds at target concentrations for 8 h. In cytotoxicity assays, HepG2 and L929 cells were seeded in 96-well plates at 5000 cells/well, in 100 μL final volume. Twenty-four hours after seeding, cells were incubated with test compounds at 50 and 100 μM for additional 24 h.
Adenylate kinase (AK) and lactate dehydrogenase (LDH) release from damaged cells were measured using the Toxilight BioAssay Kit (Lonza, Basel, Switzerland) and the Cytotoxicity Detection Kit (Roche Diagnostics GmbH, Mannheim, Germany), respectively. Adenosine triphosphate (ATP) metabolism was evaluated using CellTiter-Glo^TM Luminescent Cell Viability Assay (Promega, Madison, WI, USA). Apoptosis was determined by the measurement of caspase-3/-7 activity using the Caspase-Glo® 3/7 Assay (Promega) according to the manufacturer’s instructions. Cellular metabolic activity was measured using CellTiter 96® Aqueous Non-Radioactive Cell Proliferation (MTS) Assay (Promega). Luminescence signal was recorded using a GloMax®-MultiDetection System (Promega) and absorbance with a Model 680 microplate reader (Bio-Rad Laboratories Inc, Hercules, CA, USA).
Primary high-throughput screen. Test compounds were arrayed in 384-well white microtiter plates and screened for their potential as necroptosis inhibitors at 32 μM target concentration. Eight hours after co-incubation of L929 cells with mTNF-α and test compounds, AK release was evaluated. […]

Aqueous solubility = type: physicochemical; conditions: read-out: Aqueous solubility, concentration
[2] = MDCK-MDR1 cell-based permeability assay; type: in vitro ADME; conditions: dog

## CN1C(=O)C(Cc2c[nH]c3ccccc23)NC1=S (stereo not drawn) [Nec-1, necrostatin-1]
Jurkat E6.1 cells
  Modulation of caspase-3/-7 activity (apoptosis): failed to modulate caspase activity
[1]
  microsomal CLint: 59 µL/min/mg
L929 cells; DMSO = 0, no addition = −100, L929, 10 ng/mL mTNF-α, 8 h, Nec-1 at 29.2 μM
  Membrane integrity: > −100 percentage of control
L929 cells; 8 h
  pEC50: 5.90
L929 cells
  EC50: 1.26 µM
Aqueous solubility
  solubility: 97 µM (≈ 25.2 µg/mL)
[2]
  Papp A→B: 31 ×10⁻⁶ cm/s
  Papp B→A: 34 ×10⁻⁶ cm/s

## O=C(c1cnn(Cc2ccccc2)c1)N1CCOc2ccccc2C1 [SN-6109]
Jurkat E6.1 cells
  Modulation of caspase-3/-7 activity (apoptosis): no apoptosis modulation
[1]
  microsomal CLint: 42 µL/min/mg
L929 cells; 8 h
  pEC50: 5.20
L929 cells
  EC50: 6.31 µM
Aqueous solubility; aqueous medium (not further specified)
  solubility: 47 µM (≈ 15.7 µg/mL)
[2]
  Papp A→B: 35 ×10⁻⁶ cm/s
  Papp B→A: 18 ×10⁻⁶ cm/s
